According to patent publication US6121284A, “2,3-bridged 1,4-dihydropyridines, and their use as medicaments” (Bayer Aktiengesellschaft, priority 1994, dated 2000):

System: C6-BU1-glioma cells
Assay: 86Rubidium efflux from C6-BU1-glioma cells
Format: cell-based
Settings: Rattus norvegicus, C6-BU-1; 1 μM test substance applied; increase in 86Rb efflux above basal efflux caused by ionomycin set at 100%; read-out: residual efflux
Protocol: ^86 Rubidium Efflux from C6-BU1-glioma cells
The experiments were carried out in accordance with the method described by Tas et al. (Neurosci. Lett. 94, 279-284, (1988)), with slight changes. The increase in efflux above the basal efflux caused by ionomycin is calculated from the data and set at 100%. The stimulations in the presence of test substances are then based on this value.

In the case of `COC(=O)C1=C(C)N(C)C2=C(C(=O)OC2)C1c1cccc(F)c1F` (stereo not drawn) [Example 11, Methyl 1,4,5,7-tetrahydro-4-(2,3-difluorophenyl)-1,2-dimethyl-5-oxo-furo-[3,4b]-pyridine-3-carboxylate], the activity at 1 µM is reported as 73%.
`COC(=O)C1=C(C)N(C)C2=C(C(=O)OC2)C1c1ccc(Cl)cc1` (stereo not drawn) [Example 8, Methyl1,4,5,7-tetrahydro-4-(4-chlorophenyl)-1,2-dimethyl-7-oxo-furo-[3,4b]-pyridine-3-carboxylate] was tested, and the activity at 1 µM was 53%.
Compound `CC1=C(C(=O)OC(C)C)C(c2cccc(Cl)c2Cl)C2=C(CCCC2=O)N1C` (stereo not drawn) [Example 1, Isopropyl 4-(2,3-dichlorophenyl)-1,2-dimethyl-5-oxo-1,4,5,7,8-hexahydroquinoline-3-carboxylate] has an activity at 1 µM of 38%.
